Laboratory results published in ChEMBL document CHEMBL1144073, “A cytotoxic triterpene saponin from the root bark of Aralia dasyphylla” (J Nat Prod, 1999).
≈ marks a conversion by molar mass, not a printed value.

Tests used:
HeLa = assay: Cytotoxicity against human HeLa S3 cells; assay type: functional, cell-based
KB = assay: Cytotoxicity against human KB cells; assay type: functional, cell-based

Row | Compound | IC50 (HeLa) [µg/mL] | IC50 (KB) [µg/mL]
1 | CC1(C)CC[C@]2(C(=O)O[C@@H]3O[C@H](CO)[C@@H](O)[C@H](O)[C@H]3O)CC[C@]3(C)C(=CC[C@@H]4[C@@]5(C)CC[C@H](O[C@@H]6O[C@H](C(=O)O)[C@@H](O)[C@H](O[C@@H]7O[C@H](CO)[C@@H](O)[C@H](O)[C@H]7O)[C@H]6O[C@@H]6O[C@H](CO)[C@H](O)[C@H](O)[C@H]6O)C(C)(C)C5CC[C@]43C)[C@H]2C1 (stereo partly specified) | 0.02 (≈ 0.0179 µM) | 1.2 (≈ 1.07 µM)
2 | O=c1[nH]cc(F)c(=O)[nH]1 [FLUOROURACIL] | 0.44 (≈ 3.38 µM) | 0.93 (≈ 7.15 µM)
3 | Nc1ccn([C@@H]2O[C@H](CO)[C@@H](O)[C@@H]2O)c(=O)n1 [CYTARABINE] | 0.23 (≈ 0.946 µM) | 0.81 (≈ 3.33 µM)
